In patent US10646440B2, “Sanguisorbigenin polymer micelle and preparative methods thereof” (SICHUAN INLU WEITE PHARMACEUTICAL TECHNOLOGY CO., LTD., priority 2016, dated 2020):

Tested on: KM-mice given cyclophosphamide (bone marrow suppression)
Assay: Pharmacodynamic experiment: cyclophosphamide-induced bone marrow suppression, peripheral blood counts
Type: in vivo
[1] = cyclophosphamide 120 mg/kg i.p. day 1, 2.5 mg/kg for 6 days, blood on day 7, mean ± s

## CC1CC[C@]2(C(=O)O)CC[C@]3(C)C(=CCC4[C@@]5(C)CCC(O)C(C)(C)C5CC[C@]43C)C2[C@]1(C)O (stereo partly drawn) [Sanguisorbigenin, 3β,19β-dihydroxyurs-12-en-28-oic acid]
2.5 mg/kg, P<0.05
  numbers of NEUT and HGB in peripheral blood compared with model group: did not show significant difference
  numbers of WBC, RBC, and PLT in peripheral blood compared with model group: did not show significant difference
[1]
  HGB in peripheral blood: 45.47 ± 8.39 ^ g/L
  NEUT in peripheral blood: 2.56 ± 0.13 ×10^9
  PLT in peripheral blood: 231.16 ± 15.27 ×10^9
  RBC in peripheral blood: 3.15 ± 0.19 ×10^12
  WBC in peripheral blood: 2.79 ± 0.26 ×10^9
